Test results from the NIST ThermoML archive (doi:10.1021/je034197x).
Numbers after ± are expanded uncertainties.

Conditions: Liquid, Closed cell (Static) method

SMILES	vapor or sublimation pressure (298.15 K) [kPa]	vapor or sublimation pressure (303.15 K) [kPa]	vapor or sublimation pressure (308.15 K) [kPa]	vapor or sublimation pressure (313.15 K) [kPa]	vapor or sublimation pressure (318.15 K) [kPa]	vapor or sublimation pressure (323.15 K) [kPa]	vapor or sublimation pressure (328.15 K) [kPa]	vapor or sublimation pressure (333.15 K) [kPa]	vapor or sublimation pressure (338.15 K) [kPa]	vapor or sublimation pressure (343.15 K) [kPa]	vapor or sublimation pressure (348.15 K) [kPa]	vapor or sublimation pressure (353.15 K) [kPa]	vapor or sublimation pressure (358.15 K) [kPa]	vapor or sublimation pressure (363.15 K) [kPa]
CCCCO [butan-1-ol]	1.003 ± 0.2	1.317 ± 0.2	1.841 ± 0.2	2.544 ± 0.2	3.453 ± 0.2	4.648 ± 0.2	6.171 ± 0.2	8.103 ± 0.2	10.56 ± 0.2	13.6 ± 0.2	17.37 ± 0.2	21.98 ± 0.2	27.65 ± 0.2	34.41 ± 0.21
CCC(C)O (stereo not drawn) [butan-2-ol]	2.44 ± 0.2	3.373 ± 0.2	4.588 ± 0.2	6.234 ± 0.2	8.252 ± 0.2	10.86 ± 0.2	14.13 ± 0.2	18.34 ± 0.2	23.49 ± 0.2	29.71 ± 0.21	37.2 ± 0.21	46.36 ± 0.21	57.16 ± 0.22	70.24 ± 0.23
CCO [ethanol]	7.916 ± 0.024	10.54 ± 0.031	13.84 ± 0.039	17.98 ± 0.049	23.17 ± 0.062	29.58 ± 0.077	37.46 ± 0.097	46.95 ± 0.12	58.58 ± 0.15	72.24 ± 0.18	88.66 ± 0.22			
CO [methanol]	16.95 ± 0.046	21.88 ± 0.058	27.98 ± 0.073	35.51 ± 0.092	44.59 ± 0.11	55.65 ± 0.14	68.94 ± 0.17	84.62 ± 0.21						
CCCO [propan-1-ol]	2.88 ± 0.013	3.998 ± 0.015	5.374 ± 0.018	7.197 ± 0.023	9.568 ± 0.028	12.42 ± 0.035	16.14 ± 0.044	20.72 ± 0.055	26.41 ± 0.069	33.23 ± 0.086	41.63 ± 0.11	51.67 ± 0.13	63.69 ± 0.16	77.81 ± 0.2
CC(C)O [propan-2-ol]	5.799 ± 0.2	7.859 ± 0.2	10.52 ± 0.2	13.94 ± 0.2	18.24 ± 0.2	23.64 ± 0.2	30.35 ± 0.21	38.59 ± 0.21	48.66 ± 0.21	60.66 ± 0.22	75.22 ± 0.23	92.44 ± 0.24		
